The text below walks through data of patent US20150246938A1, “NOVEL OLEFIN DERIVATIVE” (SHIONOGI & CO., LTD., priority 2011, published 2015).

pIC50: −log10 of the molar value. Where two headings read alike, the source gives them in different places.

Test [1] has as its target T1, recombinant human ACC1 (Homo sapiens, UniProt Q13085).
T1 construct: a cDNA encoding human ACC1 (1-2346) was cloned from human liver cDNA library (BioChain); myc-tag (C); His-tag (C); made in house; host or cells: Sf-9 insect cells (baculovirus, FlashBACGOLD)
The experiment in a line: Measurement of inhibitory activity on human ACC1 (MALDI-TOF MS, acetyl CoA to malonyl CoA conversion). The test is classed as biochemical. The text has this: Recombinant baculovirus was generated using FlashBACGOLD system (Oxford Expression Technologies) according to the manufacturer's protocol. To express human ACC1, Sf-9 cells were infected with recombinant baculovirus. After infected cells were disrupted, the filtrated lysate was subjected to Ni-affinity chromatography and anion-exchange chromatography. The fractions containing human ACC1 protein were pooled as recombinant human ACC1 solution.
Recombinant human ACC1 and recombinant human ACC2, which were prepared by the method mentioned above, were preincubated with assay buffer solution (50 mM HEPES-KOH (pH 7.4), 10 mM magnesium chloride, 6-10 mM potassium citrate, 4 mM reduced form of glutathione, 1.5 mg/ml bovine serum albumin) for one hour. Then, 0.2 μL of each this invention compound solution (in DMSO) were dispensed to 384-well microplate, 5 μL of the preincubated enzyme solution and 5 μL of substrate solution (50 mM HEPES-KOH (pH 7.4), 1 mM ATP, 0.8 mM acetyl CoA and 25-50 mM potassium bicarbonate) were added to microplate. After centrifugation and shaking, the reaction mixtures were incubated in a humidified box at room temperature for 1 to 3 hours. After the incubation, the enzyme reactions were stopped by the addition of EDTA. Then, after the samples were cocrystallized with CHCA (α-cyano-4-hydroxy cinnamic acid) matrices on MALDI target plate, by using the matrix assist laser […] time-of-flight mass spectrometer (MALDI-TOF MS), samples were measured in reflector negative mode. Deprotonated ions of acetyl CoA (AcCoA) of substrate and malonyl CoA (MalCoA) of the reaction product were detected, then, the conversion rates of acetyl CoA to malonyl CoA was calculated by the intensity of [MalCoA-H]-/(Intensity of [MalCoA-H]-+Intensity of [AcCoA-H]-) using each signal strength. […] In addition, potassium citrate concentrations in assay buffer solution, potassium hydrogen carbonate concentrations in substrate solution and incubation time were adjusted by each lot of enzyme.

For test [2], the target named is T2, recombinant human ACC2 (Homo sapiens, UniProt O00763).
T2 construct: a cDNA encoding human ACC2 (27-2458) was cloned from human kidney cDNA library (Clontech); His-tag (N); made in house; host or cells: Sf-9 insect cells (Bac-to-Bac baculovirus)
The experiment in a line: Measurement of inhibitory activity on human ACC2 (MALDI-TOF MS, acetyl CoA to malonyl CoA conversion). In kind it is biochemical.

Setting [3] is: recombinant human ACC1, MALDI-TOF MS readout, read-out: 50% inhibitory concentration (1050) on human ACCT.

T2 sequence (O00763 27-2458): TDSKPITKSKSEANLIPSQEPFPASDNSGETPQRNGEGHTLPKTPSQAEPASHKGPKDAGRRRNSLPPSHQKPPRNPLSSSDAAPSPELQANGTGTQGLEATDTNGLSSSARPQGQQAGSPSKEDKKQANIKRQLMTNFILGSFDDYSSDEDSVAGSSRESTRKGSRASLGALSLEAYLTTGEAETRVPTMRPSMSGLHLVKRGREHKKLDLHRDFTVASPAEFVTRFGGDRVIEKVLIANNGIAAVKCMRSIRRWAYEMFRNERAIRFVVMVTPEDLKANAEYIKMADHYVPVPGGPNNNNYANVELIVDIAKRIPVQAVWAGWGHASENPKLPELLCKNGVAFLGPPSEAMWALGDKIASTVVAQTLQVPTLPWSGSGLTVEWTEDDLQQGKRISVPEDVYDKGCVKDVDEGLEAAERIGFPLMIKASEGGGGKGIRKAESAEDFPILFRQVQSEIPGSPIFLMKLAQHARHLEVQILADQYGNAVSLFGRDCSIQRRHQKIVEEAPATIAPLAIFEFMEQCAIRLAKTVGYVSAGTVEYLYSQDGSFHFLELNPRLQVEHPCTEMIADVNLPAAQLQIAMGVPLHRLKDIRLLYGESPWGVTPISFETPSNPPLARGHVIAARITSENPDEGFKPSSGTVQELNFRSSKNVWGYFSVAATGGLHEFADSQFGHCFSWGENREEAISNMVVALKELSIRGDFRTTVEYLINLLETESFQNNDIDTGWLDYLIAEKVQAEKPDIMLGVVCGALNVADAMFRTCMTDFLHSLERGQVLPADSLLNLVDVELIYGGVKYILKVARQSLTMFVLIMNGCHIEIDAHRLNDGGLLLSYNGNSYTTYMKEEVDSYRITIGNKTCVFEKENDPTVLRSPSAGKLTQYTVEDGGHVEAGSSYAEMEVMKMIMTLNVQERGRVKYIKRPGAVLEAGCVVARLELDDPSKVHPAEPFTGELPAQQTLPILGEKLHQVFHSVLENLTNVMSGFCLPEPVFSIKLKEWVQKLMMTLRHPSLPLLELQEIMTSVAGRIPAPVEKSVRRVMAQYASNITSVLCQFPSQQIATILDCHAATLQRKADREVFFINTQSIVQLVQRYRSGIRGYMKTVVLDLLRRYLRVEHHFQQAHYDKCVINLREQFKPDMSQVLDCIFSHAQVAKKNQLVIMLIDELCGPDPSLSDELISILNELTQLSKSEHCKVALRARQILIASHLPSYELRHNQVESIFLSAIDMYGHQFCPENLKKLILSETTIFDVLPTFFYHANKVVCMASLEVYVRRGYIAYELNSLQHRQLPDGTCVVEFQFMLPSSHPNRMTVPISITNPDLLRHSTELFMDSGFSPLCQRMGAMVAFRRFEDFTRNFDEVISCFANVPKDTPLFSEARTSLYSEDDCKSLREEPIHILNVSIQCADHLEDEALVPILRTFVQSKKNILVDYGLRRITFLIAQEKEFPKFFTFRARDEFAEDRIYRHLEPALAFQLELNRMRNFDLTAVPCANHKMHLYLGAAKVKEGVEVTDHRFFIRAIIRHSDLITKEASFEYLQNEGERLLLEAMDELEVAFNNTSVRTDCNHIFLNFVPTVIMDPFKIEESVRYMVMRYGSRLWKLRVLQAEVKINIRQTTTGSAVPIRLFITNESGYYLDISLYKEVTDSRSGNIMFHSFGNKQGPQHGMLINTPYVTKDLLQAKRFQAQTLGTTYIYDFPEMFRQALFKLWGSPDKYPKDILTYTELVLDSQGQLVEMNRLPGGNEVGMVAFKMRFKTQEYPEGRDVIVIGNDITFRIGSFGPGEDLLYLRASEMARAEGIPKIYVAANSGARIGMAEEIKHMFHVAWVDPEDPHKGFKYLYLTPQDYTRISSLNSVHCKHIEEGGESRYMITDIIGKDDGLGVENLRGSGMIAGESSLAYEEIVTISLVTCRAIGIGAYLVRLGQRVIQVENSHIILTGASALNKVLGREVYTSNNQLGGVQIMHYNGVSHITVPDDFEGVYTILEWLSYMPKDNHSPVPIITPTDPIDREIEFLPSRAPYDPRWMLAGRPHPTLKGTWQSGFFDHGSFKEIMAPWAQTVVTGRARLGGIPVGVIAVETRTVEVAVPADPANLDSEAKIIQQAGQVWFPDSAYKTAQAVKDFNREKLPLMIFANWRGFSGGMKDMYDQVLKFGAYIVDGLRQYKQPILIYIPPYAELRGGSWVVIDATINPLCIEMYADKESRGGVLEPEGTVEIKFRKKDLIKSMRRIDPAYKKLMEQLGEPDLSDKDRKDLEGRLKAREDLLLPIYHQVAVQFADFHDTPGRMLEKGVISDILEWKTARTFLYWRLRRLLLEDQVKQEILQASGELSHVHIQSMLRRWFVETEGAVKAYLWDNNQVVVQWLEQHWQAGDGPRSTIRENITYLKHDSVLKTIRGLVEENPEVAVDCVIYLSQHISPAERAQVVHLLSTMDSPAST

`CCOc1ccc(Cc2ccc(/C=C/[C@H](C)NC(C)=O)cn2)c(Cl)c1` [Compound I-60]: in test [1], the pIC50 is less than 4.00.
As for `CCCc1ccc(Oc2ccc(/C=C/[C@H](C)NC(=O)CN)cn2)c(Cl)c1` [Compound I-390], the values for the pIC50 in test [1] and in test [2] were less than 4.00 and 6.27, respectively.
As for `C[C@@H](/C=C/c1cnc(Oc2ccc(OCC3CC3)cc2Cl)s1)NC(=O)CC(=O)OC(C)(C)C` [Compound I-100], the pIC50 in test [1] (setting [3]) is less than 4.00.
`CC(=O)N[C@@H](C)/C=C/c1ccc(Oc2ccc(-c3ncns3)cc2Cl)nc1` [Compound I-420]: the pIC50 was less than 4.00 in test [1] (setting [3]) and 6.92 in test [2].
Consider `CCNC(=O)c1cc(C(=O)N[C@@H](C)/C=C/c2cnn(Cc3ccc(OCC4CC4)c(Cl)c3Cl)c2)ccn1` [Compound I-320], for which the pIC50 is less than 4.00 in test [1] and 6.64 in test [2] (inhibition activity on human ACC2, Table 82, read-out: IC50).
Regarding `CC(=O)N[C@@H](C)/C=C/c1ccc(Oc2ccc(C(C)(C)C)cc2Cl)nc1` [Compound I-300], the results for the pIC50 in test [1] (setting [3]) and in test [2] were less than 4.00 and 7.74, respectively.
Consider `CCCc1ccc(Oc2ccc(/C=C/[C@H](C)NC(C)=O)cn2)c(OC)c1` [Compound I-438], for which the pIC50 in test [1] was less than 4.00; in test [2] (inhibition activity on human ACC2, Table 84, read-out: IC50) it was 6.11.
Turning to `COC(=O)N[C@@H](C)/C=C/c1cnc(Oc2ccc(OCC3CC3)cc2Cl)s1` [Compound I-180], in test [1] (setting [3]), the pIC50 was less than 4.00.
Turning to `CC(C)NC(=O)c1cc(C(=O)N[C@@H](C)/C=C/c2cnc(Oc3ccc(OCC4CC4)cc3Cl)s2)ccn1` [Compound I-210], the pIC50 in test [1] (setting [3]) was less than 4.00.
In the case of `COC(=O)CCCCC(=O)N[C@@H](C)/C=C/c1cnc(Oc2ccc(OCC3CC3)cc2Cl)s1` [Compound I-130], the pIC50 in test [1] (setting [3]) is less than 4.00.
As to `CCCc1ccc(Oc2ccc(/C=C/[C@H](C)NC(C)=O)cn2)c(Cl)c1` [Compound I-30], the pIC50 in test [1] (setting [3]) is less than 4.00.
For `C[C@@H](/C=C/c1cnc(Oc2ccc(OCC3CC3)cc2Cl)s1)NC(=O)c1ccnc(N(C)C)c1` [Compound I-160], the pIC50 in test [1] (setting [3]) was less than 4.00.
`CNC(=O)COc1cc(C(=O)N[C@@H](C)/C=C/c2cnc(Oc3ccc(OCC4CC4)cc3Cl)s2)ccn1` [Compound I-250]: the pIC50 in test [1] (setting [3]) was less than 4.00.
Turning to `CC(=O)N[C@@H](C)/C=C/c1cnc(Oc2ccc(OCC3CC3)cc2Cl)nc1` [Compound I-52], in test [2] (inhibition activity on human ACC2, Table 79, read-out: IC50), the pIC50 was 7.27.
Consider `CC(C)S(=O)(=O)NCCC(=O)N[C@@H](C)/C=C/c1cnc(Oc2ccc(OCC3CC3)cc2Cl)s1` [Compound I-134], for which the pIC50 in test [2] (inhibition activity on human ACC2, Table 80, read-out: IC50) was 5.74.
As for `CC(=O)N[C@@H](C)/C=C/c1cnc(Oc2ccc(OCC3CC3)cc2Cl)s1` [Compound I-1], the pIC50 in test [1] (setting [3]) is less than 4.00.
